According to paper PMC8287630 (Journal for Immunotherapy of Cancer, 2021):

Legend:
[1] = system: several human cancer cell lines; settings: cited from earlier work
[2] = Pharmacokinetic study in beagle dogs; format: in vivo; settings: dog, plasma, 30 mg/kg
Procedure: (§1) Pharmacokinetic studies of free CHA and CHA-SME were performed using SD rats and beagle dogs. […] At 5, 15, 30 min, 1, 2, 4, 6, and 8 hours, approximately 0.2 mL of blood was collected from the orbital into an anticoagulant tube and centrifuged at 4500 rpm for 10 min to separate the plasma. All plasma samples were stored frozen at –80°C until LC-MS/MS analysis (TSQ Quantum Access MAX; Thermo Fisher Scientific, Waltham, MA, USA).

DCs and T cells = assay: Immunomodulatory effects in vivo (immunophenotype of DCs and T cells, cytokines); set-up: species or system mice; settings: CHA-SME 35 mg/kg; versus control treatment
Procedure: The in vivo immunomodulatory effects of CHA-SME were evaluated by analyzing the immunophenotype of LYM and cytokine production. LYM (DCs and T cells) infiltrated into the blood, tumor, and other important immune organs (MLNs and spleen) were quantitatively analyzed by flow cytometry. Fresh tumors were cut into small pieces and digested at 37°C for 40 min. Fresh MLNs and spleens were cut into small pieces and ground into single-cell suspensions. The cells were collected, washed, and incubated with different fluorescein-conjugated antibodies. The cell suspensions were filtered through 400-mesh sieves after two washes and analyzed by flow cytometry ([…] Biosciences, San Diego, California, USA). For immunophenotype analysis of T cells, CD45 +CD3+CD44+CD62L+cells and CD45 +CD3+CD44+CD62 L-cells were considered to be central memory T cells (TCM) and effector memory T cells (TEM), respectively. For DC maturation analysis, the expression levels of MHC I, CD40, CD80, and CD86 on DCs were examined. Different cytokines (IFN-γ, tumor necrosis factor α (TNF-α), and IL-10) in tumors, MLNs, spleens, and blood were quantitatively determined using bead-based LEGENDplex kits following the manufacturer's protocol.

[3] = Pharmacokinetic study in rats; format: in vivo; settings: male, SD, rat, plasma, po, 30 mg/kg
Procedure: as §1

[4] = In vivo safety evaluation (body weight, hematology, serum biochemistry, histopathology); set-up: species or system mice; settings: for histopathology of heart, liver, spleen, lung and kidney: HE staining, versus control group; for animal behavior and body weight after administration: tumor-bearing mice
Procedure: The in vivo safety of CHA-SME was evaluated based on body weight, hematological examination, and histopathological examination in mice. Body weight was monitored throughout the experiment. At the end of the in vivo antitumor experiment, peripheral blood was collected for hematological examination using an automatic hematology analyzer (MEK-7222 K; Nihon Kohden, Tokyo, Japan). Additionally, the serum was separated to detect […] (ALT), […] (AST), blood urea nitrogen (BUN), and creatinine (CRE) to evaluate hepatic and renal functions using an automatic biochemical analyzer (Accute TBA-40FR; TOSHIBA, Kawasaki, Japan). Heart, liver, spleen, lung, kidney, stomach, small intestine, and MLNs were collected, fixed in 4% PFA, and subjected to histopathological examination using HE staining.

G422 glioma = assay: In vivo antitumor efficacy, subcutaneous G422 glioma model; set-up: species or system ICR mice; settings: 14 days; CHA 20 mg/kg i.p., CHA-SME 35 mg/kg p.o.
Procedure: A subcutaneous glioma tumor model was established in female ICR mice, as mentioned above. […] The positive control group was orally administered TMZ (50 mg/kg) for 5 days. The blank CHA-SME group was orally administered with blank CHA-SME for 14 days. At the end of the experiment, all mice were euthanized, and the tumors were collected, weighed, and photographed. […] The positive control group was orally administered TMZ (50 mg/kg) for 5 days. […] The CHA-SME group was orally administered CHA-SME (35 mg/kg) for 14 days. At the end of the experiment, all mice were euthanized, and the tumors were collected, weighed, and photographed.

[5] = format: in vivo; settings: mice, oral 1 mg/kg, 30 min; figure 5C
Procedure: To evaluate the uptake of CHA-SME in the intestinal tissues and MLNs, Cou-6-labeled CHA-SME were orally administered to mice at 1 mg/kg. Thirty minutes later, the mice were sacrificed and intestinal segments (including duodenum, jejunum, ileum, and colon,~1 cm each) and MLNs were surgically collected, placed in embedding compound, frozen in liquid nitrogen, and dissected. The slices were fixed with 4% PFA, stained with TRITC phalloidin and DAPI, and imaged using CLSM. Additionally, MLNs were ground into single-cell suspensions and the fluorescence intensity was determined by flow cytometry.
To investigate the lymphatic transport of CHA-SME in vivo, mice were i.p. administered 3.0 mg/kg cycloheximide to block chylomicron flow.[37 38] One-hour postinjection, DiR-labeled or Cou-6-labeled CHA-SME was orally administered at 1.0 mg/kg. The mice were examined as described above.

Caco-2 cell monolayers = assay: Transport within Caco-2 cell monolayers (CLSM); format: cell-based, human; settings: 4 hours incubation
Procedure: To establish an in vitro Caco-2 cell monolayer model, Caco-2 cells were plated in a 12-well Transwell plate with a 0.4 µm pore polycarbonate membrane insert (Corning, Corning, New York, USA). A total of 0.5 mL of cell culture medium containing 2×10^5 cells was added in the upper compartment of each Transwell insert, and 1.5 mL of cell culture medium was added in the lower compartment. The culture medium in both compartments was changed every other day in the initial 14 days and every day in the following 7 days. After 21 days of culture, transepithelial electrical resistance (TEER) was measured using Millicell-ERS (Millipore, Billerica, Massachusetts, USA) to monitor cell monolayer integrity. A TEER value exceeding 800 Ω was selected for subsequent transepithelial transport study of CHA-SME.
For the transepithelial transport study of CHA-SME, Caco-2 cell monolayers cultured in Transwell plates were incubated with Cou-6-labeled CHA-SME for 4 hours at 37°C. Then, the cells were washed thrice with cold PBS, and the polycarbonate membrane with cultured cells was carefully cut from the insert. After fixation with 4% PFA and staining with TRITC phalloidin and DAPI, the excised membrane was placed in a glass slide and examined by CLSM.

Row | SMILES | effective dose for inhibition of cell proliferation / induction of apoptosis [1] | bioavailability ([2]; oral, read-out: oral absolute bioavailability) [%] | AUC ([2]; po, read-out: AUC Mean±SD) [ng·h/mL] | proportion of infiltrating CD3+, CD4+ and CD8+ T cells in brain glioma tissues (DCs and T cells) | AUC [3] [ng·h/mL] | histopathology of heart, liver, spleen, lung and kidney [4] | animal behavior and body weight after administration [4] | tumor growth (G422 glioma) | percentage of Cou-6-positive lymphocytes in MLNs [5] [%] | green fluorescence within Caco-2 cell monolayers (Caco-2 cell monolayers)
1 | O=C(/C=C/c1ccc(O)c(O)c1)O[C@@H]1C[C@](O)(C(=O)O)C[C@@H](O)[C@H]1O [CHA, Chlorogenic acid] | higher than 100 µM | 5.85 | 692 ± 179 | no significant difference | 35.8 ± 10.9 | no obvious organ lesion | tolerated the regimens well | able to inhibit tumor growth |  | 
2 | CCN(CC)c1ccc2cc(-c3nc4ccccc4s3)c(=O)oc2c1 [Cou-6, Coumarin-6] |  |  |  |  |  |  |  |  | 7.2 | negligible green fluorescence
3 | Cn1nnc2c(C(N)=O)ncn2c1=O [TMZ, temozolomide] |  |  |  |  |  | a certain degree of fragmentation and pathological changes in the heart and spleen | marked weight loss and sparse hair |  |  | 
